Experimental data published in patent US7973039B2, “Sulfonyl amino cyclic derivatives and use thereof” (Merck Serono SA, priority 2004, dated 2011).

Experiments:
[1] = target: T1, collagenase (MMP-1) (Homo sapiens, UniProt P03956); test: MMP-1 enzyme inhibition assay (coumarin-labelled peptide substrate McaPLGLDpaAR); type: biochemical; details: fluorogenic substrate McaPLGLDpaAR, 37° C., 2 hours
T1 sequence (P03956 100-469): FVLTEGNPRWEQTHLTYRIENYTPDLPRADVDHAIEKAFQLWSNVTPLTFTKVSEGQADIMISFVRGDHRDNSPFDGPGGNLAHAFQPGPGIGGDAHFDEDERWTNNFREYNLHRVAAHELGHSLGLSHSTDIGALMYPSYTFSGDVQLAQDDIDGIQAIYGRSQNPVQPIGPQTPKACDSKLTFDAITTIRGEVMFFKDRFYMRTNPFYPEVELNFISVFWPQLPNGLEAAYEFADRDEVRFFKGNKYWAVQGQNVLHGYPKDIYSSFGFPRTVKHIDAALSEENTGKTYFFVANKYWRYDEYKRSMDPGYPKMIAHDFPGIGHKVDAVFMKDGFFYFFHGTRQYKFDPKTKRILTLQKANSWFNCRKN
Description: (§1) Compounds of the invention were tested to assess their activities as inhibitors of MMP-1, MMP-2, MMP-9 and MMP-12.
(§2) Stock solutions were made up as follows: Assay Butter: 100 mM Tris-HCl pH 7.6 containing 100 mM NaCl, 10 mM CaCl2, and 0.05% Brij 35.
Substrate: 0.4 mM McaPLGLDpaAR (from Bachem) (0.437 mg/ml) stock solution in 100% DMSO (stored at −20° C.). Dilute to 8 μM in assay butter.
Enzyme: Recombinant human 92 kDa gelatinase (MMP-9; APMA (4-aminophenyl mercuric acetate)—activated if necessary) appropriately diluted in assay butter.
(§3) Test Compounds were prepared initially as 10 mM compound solution in 100% DMSO, diluted to 1 mM in 100% DMSO, then serially diluted 3-fold in 100% DMSO across columns 1-10 of a 96-well microtitre plate Assay concentration range, 100 μM (column 1) to 5.1 nM (column 10).
(§4) The assay was performed in a total volume of 100 μL per well in 96-well microtitre plates. Activated enzyme (20 μL) was added to the wells followed by 20 μL of assay butter. Appropriate concentrations of test compounds dissolved in 10 μL of DMSO were then added followed by 50 μL of McaPLGLDpaAR (8 μM, prepared by dilution of DMSO stock in assay butter). For each as say ten concentrations of test compound were examined in duplicate. Control wells lack either enzyme or test compound. The reactions were incubated at 37° C. for 2 hours. The fluorescence at 405 nm was measured immediately with an SLT Fluostar fluorometer (SL T Labinstruments GmbH, Grödig, Austria) using 320 nm excitation, without stopping the reaction.
(§5) The effect of the test compound was determined from the dose response curve generated by the 10 duplicate concentrations of inhibitor. The IC50 (the concentration of compound required to give a 50% decrease in enzyme activity) was obtained by fitting data to the equation, Y=a+((b−a)/(1+(c/X)^d)). (Y=inhibition achieved for a particular dose; X=the dose in nM; a=minimum y or zero % inhibition; b=maximum y or 100% inhibition; c=is the IC50; d=is the slope). The result was rounded to one significant figure.
Compounds of the invention were tested for inhibitory activity against collagenase (MMP-1) in an assay using a coumarin-labelled peptide substrate, (7-methoxycoumarin-4-yl)acetyl-Pro-Leu-Gly-Leu-(3-[2,4-dinitrophenyl]-L-2,3diaminopropionyl)-Ala-Arg-NH2 (McaPLGLDpaAR) (Knight et al, 1992, above). The protocol for this assay was as described for the MMP-9 assay above.

[2] = target: metalloelastase (MMP-12) (Homo sapiens, UniProt P39900); test: MMP-12 enzyme inhibition assay (coumarin-labelled peptide substrate McaPLGLDpaAR); type: biochemical; details: fluorogenic substrate McaPLGLDpaAR, 37° C., 2 hours
Description: as §1, §2
Substrate: 0.4 mM McaPLGLDpaAR (from Bachem) (0.437 mg/ml) stock solution in 100% DMSO (stored at −20° C.). Dilute to 8 μM in assay butter. […]
as §3, §4, §5
Compounds of the invention were tested for inhibitory activity against metalloelastase (MMP-12) in an assay using a coumarin-labelled peptide substrate, (7-methoxycoumarin-4-yl)acetyl-Pro-Leu-Gly-Leu-(3-[2,4dinitrophenyl]-L-2,3-diaminopropionyl)-Ala-Arg-NH2 (McaPLGLDpaAR) (Knight et al, 1992, above). The protocol for this assay was as described for the MMP-9 assay above.

[3] = test system: IL-2-induced peritoneal recruitment of lymphocytes; test: IL-2-induced peritoneal recruitment of lymphocytes; type: in vivo, C3H/HEN mice; details: Mus musculus, Lymphocyte; mice, route po, given 15 min prior to IL-2 (20 μg/kg i.p.), lymphocytes counted 24 h after IL-2; read-out: ED50 in IL-2-induced peritoneal recruitment of lymphocytes model
Description: Administration of IL-2 intraperitoneally causes migration of lymphocytes into the intraperitoneal cavity. This is a model for the cellular migration that occurs during inflammation.
C3H/HEN mice (Elevage Janvier, France) were intraperitoneally injected with IL-2 (Serono Pharmaceutical Research Institute, 20 μg/kg, in saline).
Compounds of the invention were suspended in 0.5% carboxymethylcellulose (CMC)/0.25% tween-20 and were administered by s.c. or p.o. route (10 ml/kg) 15 min prior to administration of IL-2.
Twenty-four hours after administration of IL-2, peritoneal white blood cells were collected by 3 successive lavages of the peritoneal cavity with 5 ml phosphate buffered saline (PBS)-1 mM EDTA (+4° C.). The suspension was centrifuged (1700 g×10 min at +4° C.). The resulting pellet was suspended in 1 ml PBS-1 mM EDTA.
Lymphocytes were identified and counted using a Beckman/Coulter counter.
The animals were divided into 6 groups (6 mice each group):
Group 1: (baseline) received 0.5% CMC/0.25% tween-20 (vehicle of compound of the invention) and saline (vehicle of IL-2);
Group 2: (control IL-2) received 0.5% CMC/0.25% tween-20 and injection of IL-2;
Group 3: Experimental group (Compound of the invention Dose 1) received a compound of the invention and injection of IL-2; […]
Inhibition of lymphocyte recruitment was calculated as follows: […]

Sequence of metalloelastase (MMP-12) (P39900 106-470): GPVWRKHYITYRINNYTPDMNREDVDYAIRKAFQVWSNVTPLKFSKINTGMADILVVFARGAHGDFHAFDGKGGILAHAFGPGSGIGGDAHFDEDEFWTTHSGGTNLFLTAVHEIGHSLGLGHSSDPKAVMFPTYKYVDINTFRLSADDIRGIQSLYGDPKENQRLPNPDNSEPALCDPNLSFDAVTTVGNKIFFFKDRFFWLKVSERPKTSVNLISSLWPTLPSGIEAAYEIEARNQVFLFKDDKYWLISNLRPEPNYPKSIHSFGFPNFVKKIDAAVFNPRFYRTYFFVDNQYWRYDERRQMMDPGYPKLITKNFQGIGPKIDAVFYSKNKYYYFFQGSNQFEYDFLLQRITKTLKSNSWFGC

## O=CN(O)C(C#Cc1ccc2c(c1)OCO2)CS(=O)(=O)N1CCN(c2ccc(F)cc2)CC1 (centres unmarked) [Example 1, 3-(1,3-benzodioxol-5-yl)-1 ({[4-(4-fluorophenyl)-1-piperazinyl]sulfonyl}methyl)-2-propynyl(hydroxy)formamide]
[1]
  IC50: > 5000 nM
[2]
  IC50: 46 nM
[3]
  ED50: 0.8 mg/kg

## O=CN(O)C(C#Cc1ccccc1)CS(=O)(=O)N1CCN(c2ccc(F)cc2)CC1 (centres unmarked) [Example 4, 1-({[4-(4-fluorophenyl)-1-piperazinyl]sulfonyl}methyl)-3-phenyl-2-propynyl(hydroxy)formamide]
[1]
  IC50: > 5000 nM
[2]
  IC50: 58 nM

## O=CN(O)C(C#CCc1ccccc1)CS(=O)(=O)N1CCN(c2ccc(F)cc2)CC1 (centres unmarked) [Example 6, 1-({[4-(4-fluorophenyl)-1-piperazinyl]sulfonyl}methyl)-4-phenyl-2-butynyl (hydroxy)formamide]
[1]
  IC50: > 5000 nM
[2]
  IC50: 21 nM

## CCCCCC#CC(CS(=O)(=O)N1CCN(c2ccc(F)cc2)CC1)N(O)C=O (centres unmarked) [Example 7, 1-({[4-(4-fluorophenyl)-1-piperazinyl]sulfonyl}methyl)-2-octynyl(hydroxy)formamide]
[1]
  IC50: > 5000 nM
[2]
  IC50: 20 nM
[3]
  ED50: 2 mg/kg

## COc1ccc(N2CCN(S(=O)(=O)CC(C#Cc3cccnc3)N(O)C=O)CC2)cc1 (centres unmarked) [Example 9, hydroxy[1-({[4-(4-methoxyphenyl)-1-piperazinyl]sulfonyl}methyl)-3-(3-pyridinyl)-2-propynyl]formamide]
[1]
  IC50: > 5000 nM
[2]
  IC50: 48 nM

## COc1ccc(N2CCN(S(=O)(=O)CC(C#Cc3cccc(OC)c3)N(O)C=O)CC2)cc1 (centres unmarked) [Example 10, hydroxy[3-(3-methoxyphenyl)-1-({[4-(4-methoxyphenyl)-1-piperazinyl]sulfonyl}methyl)-2-propynyl]formamide]
[1]
  IC50: > 5000 nM
[2]
  IC50: 33 nM

## CCCCCC#CC(CS(=O)(=O)N1CCC(c2ccc(OC)cc2)CC1)N(O)C=O (centres unmarked) [Example 19]
[1]
  IC50: > 5000 nM
[2]
  IC50: 18 nM

## O=CN(O)C(C#Cc1ccc(-c2ncon2)cc1)CS(=O)(=O)N1CCN(c2ccc(F)cc2)CC1 (centres unmarked) [Example 27, {1-({[4-(4-fluorophenyl)piperazin-1-yl]sulfonyl}methyl)-3-[4-(1,2,4-oxadiazol-3-yl)phenyl]prop-2-yn-1-yl}hydroxyformamide]
[1]
  IC50: > 5000 nM
[2]
  IC50: 95 nM

## CC(C)(CC#Cc1ccccc1)C(CS(=O)(=O)N1CCN(c2ccc(F)cc2)CC1)N(O)C=O (centres unmarked) [Example 36, [1-({[4-(4-fluorophenyl)piperazin-1-yl]sulfonyl}methyl)-2,2-dimethyl-5-phenylpent-4-yn-1-yl]hydroxyformamide]
[1]
  IC50: > 5000 nM
[2]
  IC50: 20 nM

## CCN(CC)CC#CC(CS(=O)(=O)N1CCC(c2ccc(OC)cc2)CC1)N(O)C=O (centres unmarked) [Example 37, [4-(diethylamino)-1-({[4-(4-methyloxyphenyl)piperidin-1-yl]sulfonyl}methyl)but-2-yn-1-yl]hydroxyformamide]
[1]
  IC50: > 5000 nM
[2]
  IC50: 6 nM

## CCCCCC#CC(CS(=O)(=O)N1CCCN(c2ccc(OCC)cc2)CC1)N(O)C=O (centres unmarked) [Example 61, [1-({[4-(4-ethyloxyphenyl)-1,4-diazepan-1-yl]sulfonyl}methyl)oct-2-yn-1-yl]hydroxyformamide]
[1]
  IC50: > 5000 nM
[2]
  IC50: 24 nM

## O=CN(O)C(C#CCN1CCCC1)CS(=O)(=O)N1CCN(c2ccc(F)cc2)CC1 (centres unmarked) [Example 64, [1-({[4-(4-fluorophenyl)piperazin-1-yl]sulfonyl}methyl)-4-pyrrolidin-1-ylbut-2-yn-1-yl]hydroxyformamide]
[1]
  IC50: > 5000 nM
[2]
  IC50: 40 nM
